Measurements: publication PMC11256175 (Bioengineering & Translational Medicine, 2024)
Converted amounts (≈) assume the structure as drawn. “Also recorded” adds a separate entry of the source. Like-named read-outs stand apart in the source and are kept apart here.

Experiments:
[1] = set-up: method as in earlier work; conditions: mice and rats; cited from earlier work
[2] = Equilibrium solubility of EV‐P in injectable oily vehicles (HPLC); type: physicochemical; conditions: for solubility at 3 days: 25°C, stored over 3 days, mean ± SD (n = 3)
Method: […] […] […] […] The EV‐P concentration in the sample was analyzed using Waters HPLC system (Model 515 pump, Model 486 UV‐VIS detector, and Model 717 plus autosampler, Waters, Milford, MA, USA) equipped with a reversed‐phase C18 column (4.6 × 150 mm, 5 μm, Shiseido). The mobile phase for EV‐P analysis consisted of 2‐propanol and deionized distilled water at a volume ratio of 6:4. The flow rate of the mobile phase and detection wavelength were 1.0 mL/min and 253 nm, respectively, and the elution time of EV‐P was 5.3 min. The calibration curve was linear in the range of 1–100 μg/mL and the limit of detection (LOD) and limit of quantitation (LOQ) values were calculated as 0.5 μg/mL and 1.5 μg/mL, respectively.

[3] = Dispersibility of EV‐P particles in oily vehicles (visual); type: physicochemical; conditions: after 3 days storage at 25°C, EV‐P 9.0 mg/mL
Method: Pulverized EV‐P powder (5 mg as EV) was added to injectable oil vehicles (1 mL) in an Eppendorf tube. The mixture was then vortexed for 10 min using a multi‐vortex (Vortex Genie 2, Scientific Industries, Chicago, IL, USA) and then shaken for 3 h at 25°C in a shaking incubator (model BF‐60SIRL, Bio Free, Seoul, Korea). Then, the dispersibility of EV‐P particles in different oily vehicles was visually evaluated. […] The EV‐P concentration in the sample was analyzed using Waters HPLC system (Model 515 pump, Model 486 UV‐VIS detector, and Model 717 plus autosampler, Waters, Milford, MA, USA) equipped with a reversed‐phase C18 column (4.6 × 150 mm, 5 μm, Shiseido). The mobile phase for EV‐P analysis consisted of 2‐propanol and deionized distilled water at a volume ratio of 6:4. The flow rate of the mobile phase and detection wavelength were 1.0 mL/min and 253 nm, respectively, and the elution time of EV‐P was 5.3 min. The calibration curve was linear in the range of 1–100 μg/mL and the limit of detection (LOD) and limit of quantitation (LOQ) values were calculated as 0.5 μg/mL and 1.5 μg/mL, respectively.

[4] = Solubility of EV‐P in phosphate buffer and dissolution medium; type: physicochemical
[5] = phosphate‐buffered saline [PBS], pH 7.4; cited from earlier work
[6] = set-up: method as in PMID 11672957; conditions: after SC or IM injection in pigs; cited from earlier work
[7] = set-up: method as in PMID 27067365; conditions: pretreatment and intermittent dosing of clodronate; cited from earlier work

C=C1[C@H](CO)[C@@H](O)C[C@@H]1n1cnc2c(=O)[nH]c(N)nc21 [EV, entecavir]
Oral doses with minimal acute toxicity [1]: up to 200 mg/kg

C=C1[C@H](COC(=O)CCCCCCCCCCCCCCC)[C@@H](O)C[C@@H]1n1cnc2c(=O)[nH]c(N)nc21 [EV‐P, 2‐amino‐1,9‐dihydro‐9‐[(1S,3R,4S)‐4‐hydroxy‐3‐(hexadecanoyloxymethyl)‐2‐methylenecyclopentyl]‐6H‐purin‐6‐one]
EV‐P dissolved in OS ([2]; OS designed using tricaprylin and Labrafac, EV‐P concentration of 9.0 mg/mL): less than 1.0 % (w/v)
solubility at 3 days ([2]; in castor oil): 2100 µg/mL (≈ 4070 µM)
solubility at 3 days ([2]; in peanut oil): 1900 µg/mL (≈ 3680 µM)
solubility at 3 days ([2]; oil or lipid, thermodynamic from solid, in Labrafac PG): 110 ± 10 µg/mL (≈ 213 µM)
solubility at 3 days ([2]; oil or lipid, thermodynamic from solid, in Miglyol 812): 620 ± 120 µg/mL (≈ 1200 µM)
solubility at 3 days ([2]; oil or lipid, thermodynamic from solid, in castor oil): 2140 ± 70 µg/mL (≈ 4150 µM)
solubility at 3 days ([2]; oil or lipid, thermodynamic from solid, in cotton seed oil): 980 ± 570 µg/mL (≈ 1900 µM)
solubility at 3 days ([2]; oil or lipid, thermodynamic from solid, in oleic acid): 5900 ± 50 µg/mL (≈ 11400 µM)
solubility at 3 days ([2]; oil or lipid, thermodynamic from solid, in peanut oil): 1950 ± 180 µg/mL (≈ 3780 µM)
solubility at 3 days ([2]; oil or lipid, thermodynamic from solid, in soybean oil): 800 ± 130 µg/mL (≈ 1550 µM)
solubility at 3 days ([2]; oil or lipid, thermodynamic from solid, in tricaprylin): 30 ± 10 µg/mL (≈ 58.2 µM)
Dispersibility ([3]; in Labrafac PG): evenly dispersed
Dispersibility ([3]; in Miglyol 812): Aggregated
Dispersibility ([3]; in castor oil): Aggregated
Dispersibility ([3]; in cotton seed oil): Aggregated
Dispersibility ([3]; in oleic acid): Re‐dispersible
Dispersibility ([3]; in peanut oil): Aggregated
Dispersibility ([3]; in soybean oil): Aggregated
Dispersibility ([3]; in tricaprylin): evenly dispersed; also recorded: Re‐dispersible
solubility ([4]; isopropyl alcohol and distilled water (5:5, v/v) mixture, read-out: Solubility in dissolution medium): > 100 µg/mL
solubility ([4]; phosphate buffer / aqueous media pH 7.4, read-out: Solubility in phosphate buffer (pH 7.4)): 1.1 µg/mL (≈ 2.13 µM)
Aqueous solubility [5]: approximately 1.1 μg/mL

CCCCCCCCCCCCCC(=O)OC(C)C [isopropyl myristate]
Elimination T 1/2 from injection site [6]: approximately 20 days

Cc1nc2n(c(=O)c1CCN1CCC(c3noc4cc(F)ccc34)CC1)CCCC2O (centres unmarked) [paliperidone]
AUC after 1 day post‐dosing, times higher than IM injection with no treatment [7]: approximately 2.2 times
C max, times higher than IM injection with no treatment [7]: 1.5 times
